From patent publication US20260138985A1, “Azepino-Indoles for the Treatment of Neurological and Psychiatric Disorders” (Terran Biosciences Inc., priority 2021, published 2026)

system: not listed separately; assay: Metabolic stability in human liver microsomes; assay type: in vitro ADME; settings: intrinsic clearance, values marked * average of two experiments
Description: Microsomal Assay: Human liver microsomes (20 mg/mL) are obtained from Xenotech, LLC (Lenexa, KS). β-nicotinamide adenine dinucleotide phosphate, reduced form (NADPH), magnesium chloride (MgCl2), and dimethyl sulfoxide (DMSO) are purchased from Sigma-Aldrich.
Determination of Metabolic Stability: 7.5 mM stock solutions of test compounds of the above structural formula (e.g., of an embodiment or aspect of embodiment thereof described herein), or pharmaceutically acceptable salt thereof, are prepared in DMSO. […] The diluted microsomes are added to wells of a 96-well deep-well polypropylene plate in triplicate. […] Reactions are initiated by addition of pre-warmed NADPH solution. The final reaction volume is 0.5 mL and contains 4.0 mg/mL human liver microsomes, 0.2 μM test compound, and 2 mM NADPH in 0.1 M potassium phosphate buffer, pH 7.4, and 3 mM MgCl2. The reaction mixtures are incubated at 37° C., and […] aliquots are removed at 0, 5, 10, 20, and 30 minutes and added to shallow-well 96-well plates which contain […] of ice-cold ACN (acetonitrile) with internal standard to stop the reactions. The plates are stored at 4° C. for 20 minutes after which […] of water is added to the wells of the plate before centrifugation to pellet precipitated proteins. Supernatants are transferred to another 96-well plate and analyzed for amounts of parent remaining by LC-MS/MS using an Applied Bio-systems API 4000 mass spectrometer. The same procedure is followed for the non-deuterated counterpart of the compound and the positive control, 7-ethoxycoumarin (1 μM). Testing is done in triplicate.
Data analysis: The in vitro Ti/s for test compounds are calculated from the slopes of the linear regression of % parent remaining (In) vs incubation time relationship.
[formula] • k=−[slope of linear regression of % parent remaining (In) vs incubation time] • The apparent intrinsic clearance is calculated using the following equation: […]
Data analysis is performed using Microsoft Excel Software.

SMILES	CLint(mic)
O=C(O)Cc1ccccc1Nc1c(Cl)cccc1Cl [Diclofenac, reference compound]	201.9* μL/min/mg

same assay, conditions: pH 7.4, intrinsic clearance, values marked * average of two experiments, read-out: CLint(mic)

SMILES	microsomal CLint at 0.2 μM [µL/min/mg]
C[C@]12CC[C@H]3[C@@H](CCC4=CC(=O)CC[C@@]43C)[C@@H]1CC[C@@H]2O [Testosterone, reference compound]	114

same assay, conditions: pH 7.4, scaled from CLint(mic), values marked * average of two experiments

SMILES	CLint scaled at 0.2 μM [mL/min/kg]
O=C(O)Cc1ccccc1Nc1c(Cl)cccc1Cl [Diclofenac, reference compound]	182
C[C@]12CC[C@H]3[C@@H](CCC4=CC(=O)CC[C@@]43C)[C@@H]1CC[C@@H]2O [Testosterone, reference compound]	103

biological target: T1, 5-HT2A receptor (Homo sapiens, UniProt P28223); assay: Calcium mobilization assay, agonist format, 5-HT2A receptor; assay type: cell-based; settings: read-out: 5-HT2A agonist Efficacy @ 10 µM
T1 construct: host or cells: unnamed cell lines
T1 sequence (P28223 whole entry): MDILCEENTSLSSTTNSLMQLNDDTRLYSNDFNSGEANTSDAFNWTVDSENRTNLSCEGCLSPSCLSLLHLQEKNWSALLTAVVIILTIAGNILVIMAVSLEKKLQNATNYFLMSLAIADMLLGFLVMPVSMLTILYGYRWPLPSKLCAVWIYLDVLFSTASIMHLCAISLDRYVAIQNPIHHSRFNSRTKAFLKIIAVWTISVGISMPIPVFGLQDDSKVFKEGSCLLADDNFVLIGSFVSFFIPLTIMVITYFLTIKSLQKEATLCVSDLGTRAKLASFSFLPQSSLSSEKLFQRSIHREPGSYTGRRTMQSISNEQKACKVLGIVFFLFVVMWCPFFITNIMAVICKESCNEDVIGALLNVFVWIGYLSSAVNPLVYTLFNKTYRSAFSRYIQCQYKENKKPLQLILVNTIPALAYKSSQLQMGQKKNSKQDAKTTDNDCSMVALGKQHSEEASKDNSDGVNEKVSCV
Description: (§1) Protocol—in vitro testing at select 5-hydroxytryptamine (5-HT; serotonin) receptors was conducted.
(§2) • 1. Cell lines were expanded from freezer stocks according to standard procedures. • 2. Cells were seeded in a total volume of 20 μL into black-walled, clear-bottom, Poly-D-lysine coated 384-well microplates and incubated at 37° C. for the appropriate time prior to testing.
(§3) • 1. Assays were performed in 1×Dye Loading Buffer consisting of 1× Dye, 1× Additive A and 2.5 mM Probenecid in HBSS/20 mM Hepes. Probenicid was prepared fresh. • 2. Cells were loaded with dye prior to testing. Media was aspirated from cells and replaced with 20 μL Dye Loading Buffer. • 3. Cells were incubated for 30-60 minutes at 37° C.
(§4) • 1. For agonist determination, cells were incubated with sample to induce response. • 2. After dye loading, cells were removed from the incubator and 10 μL HBSS/20 mM Hepes was added. 3× vehicle was included in the buffer when performing agonist dose curves to define • the EC80 for subsequent antagonist assays. Cells were incubated for 30 minutes at room temperature in the dark to equilibrate plate temperature. • 3. Intermediate dilution of sample stocks was performed to generate 4× sample in assay buffer. • 4. Compound agonist activity was measured on a FLIPR Tetra (MDS). Calcium mobilization was monitored for 2 minutes and 10 μL 4× sample in HBSS/20 mM Hepes was added to the cells 5 seconds into the assay.
(§5) • 1. Compound activity was analyzed using CBIS data analysis suite (ChemInnovation, CA). • 2. For agonist mode assays, percentage activity is calculated using the following formula: % Activity=100%×(mean RFU of test sample−mean RFU of vehicle control)/(mean MAX RFU control ligand −mean RFU of vehicle control). • 3. For positive allosteric mode assays, percentage modulation was calculated using the following formula: % Modulation=100%×((mean RFU of test sample−mean RFU of EC20 control)/(mean RFU of MAX control ligand −mean RFU of EC20 control)). • 4. For antagonist and negative allosteric modulation mode assays, percentage inhibition is calculated using the following formula: % Inhibition=100%×(1−(mean RFU of test sample−mean RFU of vehicle control)/(mean RFU of EC80 control−mean RFU of vehicle control)).
(§6) As discussed above, agonism, or partial agonism, of the 5-HT2A receptor (also known as positive allosteric modulation, or 5-HT2A modulation) is useful for the treatment of neurological and psychiatric disorders. For example, 5-HT2A agonism has been correlated with the promotion of neural plasticity (Ly et al., 2018). Agonism of the 5-HT2B receptor has been associated with unwanted cardiac valvulopathy side-effects, a form of cardio-toxicity (Rothman et al., Circulation. 2000, 102, 2836-2841; Fitzgerald et al., Molecular Pharmacology 2000, 57, 75-81). […] Antagonists of the 5-HT2C receptor are also useful for the treatment of neurological and psychiatric disorders (Kennett et al., Neuropharmacology 1997, 36, 609-620).

SMILES	activation at 10 µM [%]
CN1CCc2[nH]c3cc(S(F)(F)(F)(F)F)ccc3c2CC1 [Compound 109, pentafluoro-(3-methyl-2,4,5,6-tetrahydro-1H-azepino[4,5-b]indol-8-yl)-λ^6-sulfane]	13.7
CN1CCc2[nH]c3cccc(S(F)(F)(F)(F)F)c3c2CC1 [Compound 110, pentafluoro-(3-methyl-2,4,5,6-tetrahydro-1H-azepino[4,5-b]indol-10-yl)-λ^6-sulfane]	8.9
CN1CCc2[nH]c3cc(OC4CC4)ccc3c2CC1 [Compound 117, 8-(cyclopropoxy)-3-methyl-2,4,5,6-tetrahydro-1H-azepino[4,5-b]indole]	10.4
CN1CCc2[nH]c3c4c(ccc3c2CC1)OCCC4 [Compound 122, 9-methyl-2,3,7,8,9,10,11,12-octahydro-1H-azepino[4,5-b]pyrano[2,3-g]indole]	54
CN1CCc2[nH]c3c4c(ccc3c2CC1)OCC4 [Compound 124, 8-methyl-1,2,6,7,8,9,10,11-octahydroazepino[4,5-b]furo[2,3-g]indole]	83.8
CN1CCc2[nH]c3cc(C#N)ccc3c2CC1 [Compound 136, 3-methyl-2,4,5,6-tetrahydro-1H-azepino[4,5-b]indole-8-carbonitrile]	41.8
CN1CCc2[nH]c3cccc(C#N)c3c2CC1 [Compound 138, 3-methyl-2,4,5,6-tetrahydro-1H-azepino[4,5-b]indole-10-carbonitrile]	15.4
COc1ccc2c3c([nH]c2c1)CCN(CCO)CC3 [Compound 140, 2-(8-methoxy-2,4,5,6-tetrahydro-1H-azepino[4,5-b]indol-3-yl)ethanol]	48.1
COc1ccc2c3c([nH]c2c1)CCN(CCS(C)(=O)=O)CC3 [Compound 143, 8-methoxy-3-(2-methylsulfonylethyl)-2,4,5,6-tetrahydro-1H-azepino[4,5-b]indole]	42.1
COc1ccc2c3c([nH]c2c1)CCN(CCN(C)C)CC3 [Compound 144, 2-(8-methoxy-2,4,5,6-tetrahydro-1H-azepino[4,5-b]indol-3-yl)-N,N-dimethyl-ethanamine]	-0.7
[2H]C([2H])([2H])N1CCc2[nH]c3cc(OC4CC4)ccc3c2CC1 [Compound 145, 8-cyclopropoxy-3-(^2H3)methyl-1H,2H,3H,4H,5H,6H-azepino[4,5-b]indole]	5.8
[2H]C([2H])([2H])Oc1ccc2c3c([nH]c2c1)CCN(C1CC1)CC3 [Compound 146, 3-cyclopropyl-8-(trideuteriomethoxy)-2,4,5,6-tetrahydro-1H-azepino[4,5-b]indole]	69.4

biological target: T2, 5-HT2B receptor (Homo sapiens, UniProt P41595); assay: Calcium mobilization assay, agonist format, 5-HT2B receptor; assay type: cell-based; settings: read-out: 5-HT2B agonist Efficacy @ 5 µM
T2 construct: host or cells: unnamed cell lines
T2 sequence (P41595 whole entry): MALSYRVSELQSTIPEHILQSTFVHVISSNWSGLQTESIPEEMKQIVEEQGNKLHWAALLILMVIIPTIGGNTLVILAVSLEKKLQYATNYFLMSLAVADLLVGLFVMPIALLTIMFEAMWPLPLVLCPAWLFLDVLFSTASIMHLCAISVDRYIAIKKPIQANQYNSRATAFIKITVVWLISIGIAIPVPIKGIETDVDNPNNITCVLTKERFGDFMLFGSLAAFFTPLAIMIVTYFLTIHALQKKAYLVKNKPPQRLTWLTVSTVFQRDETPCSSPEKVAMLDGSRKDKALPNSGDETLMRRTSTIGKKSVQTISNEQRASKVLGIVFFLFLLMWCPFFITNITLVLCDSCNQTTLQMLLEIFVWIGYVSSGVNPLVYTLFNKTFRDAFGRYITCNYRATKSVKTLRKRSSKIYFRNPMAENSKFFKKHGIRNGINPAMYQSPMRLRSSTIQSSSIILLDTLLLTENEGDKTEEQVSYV
Description: as §1, §2, §3, §4, §5, §6

SMILES	activation at 5 µM [%]
CN1CCc2[nH]c3cc(S(F)(F)(F)(F)F)ccc3c2CC1 [Compound 109, pentafluoro-(3-methyl-2,4,5,6-tetrahydro-1H-azepino[4,5-b]indol-8-yl)-λ^6-sulfane]	8.5
CN1CCc2[nH]c3cccc(S(F)(F)(F)(F)F)c3c2CC1 [Compound 110, pentafluoro-(3-methyl-2,4,5,6-tetrahydro-1H-azepino[4,5-b]indol-10-yl)-λ^6-sulfane]	4
CN1CCc2[nH]c3cc(OC4CC4)ccc3c2CC1 [Compound 117, 8-(cyclopropoxy)-3-methyl-2,4,5,6-tetrahydro-1H-azepino[4,5-b]indole]	1.7
CN1CCc2[nH]c3c4c(ccc3c2CC1)OCCC4 [Compound 122, 9-methyl-2,3,7,8,9,10,11,12-octahydro-1H-azepino[4,5-b]pyrano[2,3-g]indole]	-0.8
CN1CCc2[nH]c3c4c(ccc3c2CC1)OCC4 [Compound 124, 8-methyl-1,2,6,7,8,9,10,11-octahydroazepino[4,5-b]furo[2,3-g]indole]	-0.7
CN1CCc2[nH]c3cc(C#N)ccc3c2CC1 [Compound 136, 3-methyl-2,4,5,6-tetrahydro-1H-azepino[4,5-b]indole-8-carbonitrile]	-1
CN1CCc2[nH]c3cccc(C#N)c3c2CC1 [Compound 138, 3-methyl-2,4,5,6-tetrahydro-1H-azepino[4,5-b]indole-10-carbonitrile]	-0.4
COc1ccc2c3c([nH]c2c1)CCN(CCO)CC3 [Compound 140, 2-(8-methoxy-2,4,5,6-tetrahydro-1H-azepino[4,5-b]indol-3-yl)ethanol]	-0.9
COc1ccc2c3c([nH]c2c1)CCN(CCS(C)(=O)=O)CC3 [Compound 143, 8-methoxy-3-(2-methylsulfonylethyl)-2,4,5,6-tetrahydro-1H-azepino[4,5-b]indole]	-0.1
COc1ccc2c3c([nH]c2c1)CCN(CCN(C)C)CC3 [Compound 144, 2-(8-methoxy-2,4,5,6-tetrahydro-1H-azepino[4,5-b]indol-3-yl)-N,N-dimethyl-ethanamine]	-0.5
[2H]C([2H])([2H])N1CCc2[nH]c3cc(OC4CC4)ccc3c2CC1 [Compound 145, 8-cyclopropoxy-3-(^2H3)methyl-1H,2H,3H,4H,5H,6H-azepino[4,5-b]indole]	1.5
[2H]C([2H])([2H])Oc1ccc2c3c([nH]c2c1)CCN(C1CC1)CC3 [Compound 146, 3-cyclopropyl-8-(trideuteriomethoxy)-2,4,5,6-tetrahydro-1H-azepino[4,5-b]indole]	9

biological target: T3, 5-HT2C receptor (Homo sapiens, UniProt P28335); assay: Calcium mobilization assay, antagonist format, 5-HT2C receptor; assay type: cell-based; design: dose or concentration left out as unconfirmed; settings: not given
T3 construct: host or cells: unnamed cell lines
T3 sequence (P28335 33-458): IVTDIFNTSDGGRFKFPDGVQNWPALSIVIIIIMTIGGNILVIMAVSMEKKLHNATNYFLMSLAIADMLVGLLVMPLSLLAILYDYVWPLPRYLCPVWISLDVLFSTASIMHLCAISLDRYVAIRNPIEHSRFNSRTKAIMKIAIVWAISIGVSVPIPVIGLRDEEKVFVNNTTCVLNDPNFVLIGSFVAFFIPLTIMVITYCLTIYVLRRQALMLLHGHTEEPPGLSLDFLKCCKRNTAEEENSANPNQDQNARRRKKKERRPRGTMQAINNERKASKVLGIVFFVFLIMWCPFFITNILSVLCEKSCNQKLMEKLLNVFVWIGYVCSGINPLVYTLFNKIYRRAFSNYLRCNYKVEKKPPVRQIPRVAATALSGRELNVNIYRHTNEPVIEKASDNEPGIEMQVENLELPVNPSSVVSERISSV
Description: as §1, §2, §3
• 1. For antagonist determination, cells were pre-incubated with sample followed by agonist challenge at the EC80 concentration. • 2. Intermediate dilution of sample stocks was performed to generate 3× sample in assay buffer. • 3. After dye loading, cells were removed from the incubator and […] 3× sample was added. Cells were incubated for 30 minutes at room temperature in the dark to equilibrate plate temperature. Vehicle concentration was 1%. • 4. Compound antagonist activity was measured on a FLIPR Tetra (MDS). Calcium mobilization was monitored for 2 minutes and 10 μL EC80 agonist in HBSS/20 mM Hepes was added to the cells 5 seconds into the assay.
as §5, §6

SMILES	inhibition [%]
CN1CCc2[nH]c3cc(S(F)(F)(F)(F)F)ccc3c2CC1 [Compound 109, pentafluoro-(3-methyl-2,4,5,6-tetrahydro-1H-azepino[4,5-b]indol-8-yl)-λ^6-sulfane]	101
CN1CCc2[nH]c3cccc(S(F)(F)(F)(F)F)c3c2CC1 [Compound 110, pentafluoro-(3-methyl-2,4,5,6-tetrahydro-1H-azepino[4,5-b]indol-10-yl)-λ^6-sulfane]	103
CN1CCc2[nH]c3cc(OC4CC4)ccc3c2CC1 [Compound 117, 8-(cyclopropoxy)-3-methyl-2,4,5,6-tetrahydro-1H-azepino[4,5-b]indole]	99.7
CN1CCc2[nH]c3c4c(ccc3c2CC1)OCCC4 [Compound 122, 9-methyl-2,3,7,8,9,10,11,12-octahydro-1H-azepino[4,5-b]pyrano[2,3-g]indole]	98.9
CN1CCc2[nH]c3c4c(ccc3c2CC1)OCC4 [Compound 124, 8-methyl-1,2,6,7,8,9,10,11-octahydroazepino[4,5-b]furo[2,3-g]indole]	93.1
CN1CCc2[nH]c3cc(C#N)ccc3c2CC1 [Compound 136, 3-methyl-2,4,5,6-tetrahydro-1H-azepino[4,5-b]indole-8-carbonitrile]	98.6
CN1CCc2[nH]c3cccc(C#N)c3c2CC1 [Compound 138, 3-methyl-2,4,5,6-tetrahydro-1H-azepino[4,5-b]indole-10-carbonitrile]	100
COc1ccc2c3c([nH]c2c1)CCN(CCO)CC3 [Compound 140, 2-(8-methoxy-2,4,5,6-tetrahydro-1H-azepino[4,5-b]indol-3-yl)ethanol]	93.8
COc1ccc2c3c([nH]c2c1)CCN(CCS(C)(=O)=O)CC3 [Compound 143, 8-methoxy-3-(2-methylsulfonylethyl)-2,4,5,6-tetrahydro-1H-azepino[4,5-b]indole]	97.2
COc1ccc2c3c([nH]c2c1)CCN(CCN(C)C)CC3 [Compound 144, 2-(8-methoxy-2,4,5,6-tetrahydro-1H-azepino[4,5-b]indol-3-yl)-N,N-dimethyl-ethanamine]	3.1
[2H]C([2H])([2H])N1CCc2[nH]c3cc(OC4CC4)ccc3c2CC1 [Compound 145, 8-cyclopropoxy-3-(^2H3)methyl-1H,2H,3H,4H,5H,6H-azepino[4,5-b]indole]	101
[2H]C([2H])([2H])Oc1ccc2c3c([nH]c2c1)CCN(C1CC1)CC3 [Compound 146, 3-cyclopropyl-8-(trideuteriomethoxy)-2,4,5,6-tetrahydro-1H-azepino[4,5-b]indole]	103
Cc1cc2c(cc1Cl)N(C(=O)Nc1ccc(Oc3cccnc3C)nc1)CC2 [SB242084, reference compound]	101
